Experiments:
[1] = Dynamic Vapor Sorption (DVS) analysis / hygroscopicity of salt forms; format: physicochemical; settings: for Hygroscopicity by DVS analysis / Hygroscopicity: DVS at 25° C.; for Hygroscopicity: Table 4
Experimental: DVS analysis was carried out using a Surface Measurement System DVS Intrinsic analyzer (SMS, UK). The instrument balance was calibrated with standard weights. Approximately 15-20 mg of sample was loaded into a pan for analysis. The sample was analyzed at 25° C. in 10% relative humidity (RH) steps from 50% to 95% RH (adsorption cycle), from 95% to 0% RH (desorption cycle), and from 0% to 50% RH (adsorption cycle). The movement from one step to the next occurred either after satisfying the equilibrium criterion of 0.002% weight change (dm/dt) or, if the equilibrium criterion was not met, after six hours. […]

[2] = Solid form stability (physical by XRPD, chemical by GC purity) under stress storage; format: physicochemical; settings: for 25° C./60% RH 2-weeks stability, Purity (%) / 40° C./75% RH 2-weeks stability, Purity (%) / 60° C. 2 weeks stability, Purity (%): GC purity; for 60° C. 2 weeks stability, XRPD: about 20 mg in glass weighing bottles
Experimental: Standard XRPD patterns were collected using a Bruker D8 Advance diffractometer (Bruker, GER). The X-ray source is a copper (Cu) tube that was operated at 40 kV and 40 mA. Powder samples were prepared on zero-background silicon (Si) holders using manual light pressure to keep the sample surfaces flat. Each sample was analyzed from 3 to 45° 2θ with an effective step size of 0.02° 2θ and 0.08 s exposure time.
Shimadzu GC-2104 (Shimadzu, Japan) was utilized for chemical purity characterization.
Several salts were further investigated for hygroscopicity, purity, and solid form stability. To determine solid form stability, glass weighing bottles containing about 20 mg samples were kept under (1) 60° C., (2) 25° C./60% RH, and (3) 40° C./75% RH conditions, respectively. After 1 week and 2 weeks, respectively, XRPD and GC analyses were conducted to investigate the physical and chemical stability of the selected forms under corresponding conditions.

Compound | Hygroscopicity by DVS analysis [1] | Form conversion after DVS test ([1]; after DVS test) | 25° C./60% RH 2-weeks stability, XRPD [2] | 25° C./60% RH 2-weeks stability, Purity (%) [2] [%] | 40° C./75% RH 2-weeks stability, XRPD [2] | 40° C./75% RH 2-weeks stability, Purity (%) [2] [%] | 60° C. 2 weeks stability, XRPD [2] | Hygroscopicity [1] | 60° C. 2 weeks stability, Purity (%) [2] [%] | DVS weight gain at 80% RH ([1]; 25° C.) | DVS weight gain at 95% RH ([1]; 25° C.) | Deliquescence with high humidity [1] | DVS weight gain at 0% RH ([1]; 0% RH, 25° C.)
C1CCC(NC2CCCCC2)CC1.O=C(O)[C@H]1C[C@@H](OC(F)(F)F)C1 [VIa-1a DCHA salt Form A] | non-hygroscopic | no form conversion was detected | – | – | – | – | – | – | – | – | – | – | –
C1CCC(NC2CCCCC2)CC1.O=C(O)[C@H]1C[C@@H](OC(F)(F)F)C1 [VIa-1a, DCHA salt Form A] | – | – | No change | 99.7 | No change | 99.3 | Sublimed | non- | – | – | – | – | –
N=C(N)NCCC[C@H](N)C(=O)O.O=C(O)[C@H]1C[C@@H](OC(F)(F)F)C1 [VIa-1a, L-Arginine salt Form A] | – | – | No change | 98.8 | Deliquesced | – | additional peak | hygroscopic | 99.2 | – | – | – | –
N=C(N)NCCC[C@H](N)C(=O)O.O=C(O)[C@H]1C[C@@H](OC(F)(F)F)C1 [VIa-1a, L-arginine salt Form A] | high hygroscopicity | – | – | – | – | – | – | – | – | about 28% | about 74% | deliquesced with high humidity | –
CC(C)(C)N.O=C(O)[C@H]1C[C@@H](OC(F)(F)F)C1 [VIa-1a, TBA salt Form A] | – | – | – | – | – | – | Sublimed^& | non- | – | – | – | – | –
NC(CO)(CO)CO.O=C(O)[C@H]1C[C@@H](OC(F)(F)F)C1 [VIa-1a, TMA salt Form A] | non-hygroscopic | – | No change | 99.4 | No change | 99.3 | No change | non- | 99.3 | about 0.1% | about 47% | may deliquesce with high humidity (>90% RH) | about 7%

From patent publication US20250376432A1, “PROCESS FOR PREPARING MODULATORS OF EUKARYOTIC INITIATION FACTOR 2B” (Denali Therapeutics Inc., priority 2022, published 2025)
